Results published in ChEMBL document CHEMBL2010665, “Novel, druglike 1,7-disubstituted 2,3,4,5-tetrahydro-1H-benzo[b]azepine-based selective inhibitors of human neuronal nitric oxide synthase (nNOS)” (Bioorg Med Chem Lett, 2012).

Assays:
Nitric oxide synthase 1 = Nitric oxide synthase 1 (Homo sapiens, UniProt P29475); assay: Inhibition of human recombinant nNOS expressed in baculovirus infected insect sf9 cells assessed as conversion of [3H]-L-arginine into [3H]-L-citrulline by radiometric method
Nitric oxide synthase 3 = molecular target: T1, Nitric oxide synthase 3 (Homo sapiens, UniProt P29474); assay: Inhibition of human recombinant eNOS expressed in baculovirus infected insect sf9 cells assessed as conversion of [3H]-L-arginine into [3H]-L-citrulline by radiometric method
T1 sequence (P29474 whole entry): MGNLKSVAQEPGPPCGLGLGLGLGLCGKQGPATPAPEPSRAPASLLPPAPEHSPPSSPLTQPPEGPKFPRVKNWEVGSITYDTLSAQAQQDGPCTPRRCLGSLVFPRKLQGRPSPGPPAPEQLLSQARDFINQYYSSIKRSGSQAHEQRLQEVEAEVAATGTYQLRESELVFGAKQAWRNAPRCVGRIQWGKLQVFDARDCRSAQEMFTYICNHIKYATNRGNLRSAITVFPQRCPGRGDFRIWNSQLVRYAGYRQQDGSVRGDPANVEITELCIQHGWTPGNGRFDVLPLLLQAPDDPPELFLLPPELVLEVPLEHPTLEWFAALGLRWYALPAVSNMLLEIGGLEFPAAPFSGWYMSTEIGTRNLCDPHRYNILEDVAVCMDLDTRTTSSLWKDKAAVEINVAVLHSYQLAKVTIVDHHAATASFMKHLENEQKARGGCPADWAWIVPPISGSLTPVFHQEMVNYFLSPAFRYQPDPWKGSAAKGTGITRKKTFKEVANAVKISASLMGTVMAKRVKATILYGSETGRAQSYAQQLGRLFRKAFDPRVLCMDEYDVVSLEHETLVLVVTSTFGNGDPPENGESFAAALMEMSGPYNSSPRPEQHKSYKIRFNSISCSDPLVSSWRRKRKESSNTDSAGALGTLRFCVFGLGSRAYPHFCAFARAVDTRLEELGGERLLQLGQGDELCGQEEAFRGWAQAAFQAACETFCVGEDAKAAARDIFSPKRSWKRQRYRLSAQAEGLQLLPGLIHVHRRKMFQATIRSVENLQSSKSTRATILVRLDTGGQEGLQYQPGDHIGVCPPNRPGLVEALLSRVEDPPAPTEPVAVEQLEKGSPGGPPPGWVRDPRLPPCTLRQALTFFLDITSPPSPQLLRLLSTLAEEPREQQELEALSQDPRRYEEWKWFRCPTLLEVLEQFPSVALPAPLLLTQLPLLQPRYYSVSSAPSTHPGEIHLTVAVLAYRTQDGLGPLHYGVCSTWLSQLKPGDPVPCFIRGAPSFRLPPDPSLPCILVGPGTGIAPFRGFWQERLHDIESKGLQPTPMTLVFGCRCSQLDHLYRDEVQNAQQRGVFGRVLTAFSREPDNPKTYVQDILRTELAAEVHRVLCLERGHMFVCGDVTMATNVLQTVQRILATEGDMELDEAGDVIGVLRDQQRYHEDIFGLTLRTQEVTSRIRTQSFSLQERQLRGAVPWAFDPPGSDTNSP

[1] = molecular target: Nitric oxide synthase, inducible (Homo sapiens, UniProt P35228); assay: Inhibition of human recombinant iNOS expressed in baculovirus infected insect sf9 cells assessed as conversion of [3H]-L-arginine into [3H]-L-citrulline by radiometric method
[2] = molecular target: Nitric oxide synthase, inducible (Rattus norvegicus, UniProt Q06518); assay: Inhibition of rat iNOS
[3] = molecular target: Voltage-gated inwardly rectifying potassium channel KCNH2 (Homo sapiens, UniProt Q12809); assay: Inhibition of human Erg expressed in HEK293 cells up to 30 uM by patch clamp assay; format: cell-based
Voltage-gated inwardly rectifying potassium channel KCNH2, sequence (Q12809 whole entry): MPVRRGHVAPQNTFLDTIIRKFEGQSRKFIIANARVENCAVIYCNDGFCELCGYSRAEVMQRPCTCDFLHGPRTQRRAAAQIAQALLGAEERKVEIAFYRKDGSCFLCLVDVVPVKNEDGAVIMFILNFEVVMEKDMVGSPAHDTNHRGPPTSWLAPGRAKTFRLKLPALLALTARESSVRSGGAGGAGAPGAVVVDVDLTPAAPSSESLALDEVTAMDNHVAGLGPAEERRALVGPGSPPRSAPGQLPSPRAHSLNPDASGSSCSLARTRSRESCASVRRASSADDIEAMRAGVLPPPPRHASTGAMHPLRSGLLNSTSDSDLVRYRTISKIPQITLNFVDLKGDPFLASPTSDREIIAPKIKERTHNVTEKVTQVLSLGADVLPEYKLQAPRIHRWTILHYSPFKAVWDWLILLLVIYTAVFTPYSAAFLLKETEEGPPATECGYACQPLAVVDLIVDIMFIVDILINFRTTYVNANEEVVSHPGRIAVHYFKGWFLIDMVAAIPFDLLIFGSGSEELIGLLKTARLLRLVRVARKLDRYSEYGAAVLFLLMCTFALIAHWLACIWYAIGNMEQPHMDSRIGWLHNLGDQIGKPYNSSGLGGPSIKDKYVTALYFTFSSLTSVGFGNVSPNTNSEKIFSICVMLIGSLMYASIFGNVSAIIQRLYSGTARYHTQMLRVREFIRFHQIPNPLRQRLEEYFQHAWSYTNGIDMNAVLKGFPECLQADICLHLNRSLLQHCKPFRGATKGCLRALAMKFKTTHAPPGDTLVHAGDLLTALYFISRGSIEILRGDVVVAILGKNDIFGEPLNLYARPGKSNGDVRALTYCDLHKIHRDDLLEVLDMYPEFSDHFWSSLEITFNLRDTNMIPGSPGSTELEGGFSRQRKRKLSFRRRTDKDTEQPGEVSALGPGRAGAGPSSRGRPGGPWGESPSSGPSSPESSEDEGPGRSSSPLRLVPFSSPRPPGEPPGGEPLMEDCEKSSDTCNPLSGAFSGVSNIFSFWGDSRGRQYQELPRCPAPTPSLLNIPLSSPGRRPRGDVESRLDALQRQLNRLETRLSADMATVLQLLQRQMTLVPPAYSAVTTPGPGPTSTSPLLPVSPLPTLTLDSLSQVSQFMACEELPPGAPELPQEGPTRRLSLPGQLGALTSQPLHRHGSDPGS

Nitric oxide synthase 1, sequence (P29475 whole entry): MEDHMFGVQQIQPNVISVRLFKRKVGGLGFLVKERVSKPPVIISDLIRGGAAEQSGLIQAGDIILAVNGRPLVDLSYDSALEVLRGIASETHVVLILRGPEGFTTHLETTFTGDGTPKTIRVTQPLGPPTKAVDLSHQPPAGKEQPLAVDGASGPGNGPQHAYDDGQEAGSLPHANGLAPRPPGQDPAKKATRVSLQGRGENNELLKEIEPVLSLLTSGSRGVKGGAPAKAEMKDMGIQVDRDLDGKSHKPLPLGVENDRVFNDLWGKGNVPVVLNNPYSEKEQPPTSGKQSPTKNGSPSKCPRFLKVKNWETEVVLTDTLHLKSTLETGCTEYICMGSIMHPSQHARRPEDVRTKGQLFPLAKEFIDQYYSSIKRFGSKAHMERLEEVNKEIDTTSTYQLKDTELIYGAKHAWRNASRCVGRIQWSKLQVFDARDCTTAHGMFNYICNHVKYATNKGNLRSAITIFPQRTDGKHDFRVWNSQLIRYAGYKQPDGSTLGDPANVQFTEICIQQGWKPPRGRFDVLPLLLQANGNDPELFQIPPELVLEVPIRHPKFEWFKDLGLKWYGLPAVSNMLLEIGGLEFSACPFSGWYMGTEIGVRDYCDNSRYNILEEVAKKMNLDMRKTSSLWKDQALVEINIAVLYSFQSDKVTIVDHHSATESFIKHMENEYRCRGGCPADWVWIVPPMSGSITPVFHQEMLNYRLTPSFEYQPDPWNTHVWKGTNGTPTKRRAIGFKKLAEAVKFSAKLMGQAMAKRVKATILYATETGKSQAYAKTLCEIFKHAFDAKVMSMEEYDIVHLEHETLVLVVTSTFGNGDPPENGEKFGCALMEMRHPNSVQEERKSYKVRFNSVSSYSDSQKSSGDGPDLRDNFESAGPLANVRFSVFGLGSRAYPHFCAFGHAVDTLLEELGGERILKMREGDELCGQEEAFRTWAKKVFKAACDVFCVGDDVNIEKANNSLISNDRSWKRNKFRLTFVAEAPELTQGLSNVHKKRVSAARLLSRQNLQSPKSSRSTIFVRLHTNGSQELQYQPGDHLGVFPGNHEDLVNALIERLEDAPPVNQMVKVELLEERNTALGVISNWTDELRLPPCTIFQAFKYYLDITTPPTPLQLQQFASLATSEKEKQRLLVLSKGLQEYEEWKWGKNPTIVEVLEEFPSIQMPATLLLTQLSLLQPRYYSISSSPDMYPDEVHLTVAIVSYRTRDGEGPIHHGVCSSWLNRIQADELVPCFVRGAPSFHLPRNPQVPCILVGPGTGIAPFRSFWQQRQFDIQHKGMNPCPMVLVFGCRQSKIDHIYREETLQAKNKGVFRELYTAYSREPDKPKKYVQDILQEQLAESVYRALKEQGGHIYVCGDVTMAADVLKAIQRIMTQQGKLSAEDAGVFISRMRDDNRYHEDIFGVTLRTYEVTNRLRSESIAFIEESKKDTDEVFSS
Nitric oxide synthase, inducible (Homo sapiens, UniProt P35228), sequence (P35228 whole entry): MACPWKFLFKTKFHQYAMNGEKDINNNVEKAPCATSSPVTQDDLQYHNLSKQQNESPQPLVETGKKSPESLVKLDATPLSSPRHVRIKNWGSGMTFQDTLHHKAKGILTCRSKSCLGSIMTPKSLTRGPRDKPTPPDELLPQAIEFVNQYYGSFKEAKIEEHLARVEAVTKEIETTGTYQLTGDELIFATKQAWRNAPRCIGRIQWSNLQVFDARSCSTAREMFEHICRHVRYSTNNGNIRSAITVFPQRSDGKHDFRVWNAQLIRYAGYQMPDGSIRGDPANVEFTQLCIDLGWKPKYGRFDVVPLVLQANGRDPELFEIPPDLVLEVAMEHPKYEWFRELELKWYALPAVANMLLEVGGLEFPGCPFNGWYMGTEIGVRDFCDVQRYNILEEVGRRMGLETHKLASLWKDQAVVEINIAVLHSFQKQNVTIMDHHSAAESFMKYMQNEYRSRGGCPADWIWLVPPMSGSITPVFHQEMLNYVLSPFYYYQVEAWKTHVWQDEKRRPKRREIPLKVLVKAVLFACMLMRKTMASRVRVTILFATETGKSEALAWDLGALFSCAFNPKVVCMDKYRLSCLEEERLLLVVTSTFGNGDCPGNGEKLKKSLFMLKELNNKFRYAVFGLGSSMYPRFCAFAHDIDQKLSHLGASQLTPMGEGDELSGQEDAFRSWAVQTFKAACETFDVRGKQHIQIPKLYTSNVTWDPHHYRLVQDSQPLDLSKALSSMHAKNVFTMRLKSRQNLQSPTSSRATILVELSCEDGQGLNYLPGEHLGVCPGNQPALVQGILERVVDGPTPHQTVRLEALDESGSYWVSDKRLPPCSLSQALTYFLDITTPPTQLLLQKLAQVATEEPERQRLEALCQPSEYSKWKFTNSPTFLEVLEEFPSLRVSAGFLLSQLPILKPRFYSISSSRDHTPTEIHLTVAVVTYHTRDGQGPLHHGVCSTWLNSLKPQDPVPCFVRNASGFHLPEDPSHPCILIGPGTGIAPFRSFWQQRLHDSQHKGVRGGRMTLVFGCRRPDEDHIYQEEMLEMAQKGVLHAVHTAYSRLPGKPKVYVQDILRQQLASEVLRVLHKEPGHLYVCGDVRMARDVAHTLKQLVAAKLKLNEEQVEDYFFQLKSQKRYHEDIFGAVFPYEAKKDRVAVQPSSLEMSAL
Nitric oxide synthase, inducible (Rattus norvegicus, UniProt Q06518), sequence (Q06518 whole entry): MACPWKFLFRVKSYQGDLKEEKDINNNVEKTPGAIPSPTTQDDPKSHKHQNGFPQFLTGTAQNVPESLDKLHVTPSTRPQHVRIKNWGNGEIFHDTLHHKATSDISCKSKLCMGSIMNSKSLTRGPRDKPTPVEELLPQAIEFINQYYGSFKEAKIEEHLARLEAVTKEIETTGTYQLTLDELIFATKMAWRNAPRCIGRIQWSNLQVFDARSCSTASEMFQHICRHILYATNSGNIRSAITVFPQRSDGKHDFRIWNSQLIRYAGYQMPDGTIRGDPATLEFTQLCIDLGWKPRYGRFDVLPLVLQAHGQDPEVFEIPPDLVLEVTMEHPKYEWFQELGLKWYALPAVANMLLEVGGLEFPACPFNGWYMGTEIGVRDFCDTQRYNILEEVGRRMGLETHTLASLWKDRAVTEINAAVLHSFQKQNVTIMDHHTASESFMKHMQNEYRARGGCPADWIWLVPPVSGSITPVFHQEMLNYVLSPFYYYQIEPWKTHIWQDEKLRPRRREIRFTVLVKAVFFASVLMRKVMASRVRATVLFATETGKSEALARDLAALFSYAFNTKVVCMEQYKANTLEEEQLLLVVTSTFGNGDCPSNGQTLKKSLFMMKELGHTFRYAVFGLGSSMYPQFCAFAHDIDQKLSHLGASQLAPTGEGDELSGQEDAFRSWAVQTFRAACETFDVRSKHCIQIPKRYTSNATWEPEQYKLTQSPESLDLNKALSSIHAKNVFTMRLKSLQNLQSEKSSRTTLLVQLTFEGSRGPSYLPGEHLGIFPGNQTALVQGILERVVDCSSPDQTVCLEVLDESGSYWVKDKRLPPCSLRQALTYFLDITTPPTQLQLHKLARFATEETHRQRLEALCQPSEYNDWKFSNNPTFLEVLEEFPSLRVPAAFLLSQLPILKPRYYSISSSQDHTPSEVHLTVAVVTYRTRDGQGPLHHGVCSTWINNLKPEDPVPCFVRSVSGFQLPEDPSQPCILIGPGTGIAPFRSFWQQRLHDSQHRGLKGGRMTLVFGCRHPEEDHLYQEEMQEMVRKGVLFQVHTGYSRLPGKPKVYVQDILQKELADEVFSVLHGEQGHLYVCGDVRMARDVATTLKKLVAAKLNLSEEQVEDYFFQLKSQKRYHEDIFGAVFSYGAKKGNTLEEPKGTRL

Row | SMILES | IC50 (Nitric oxide synthase 1) [nM] | IC50 (Nitric oxide synthase 3) [nM] | IC50 [1] [nM] | IC50 [2] [nM] | inhibition (INH) [3]
1 | N=C(Nc1ccc2c(c1)CCCCN2C1CCNCC1)c1cccs1 | 2380 | – | – | – | –
2 | N=C(Nc1ccc2c(c1)CCCCN2CCN1CCCC1)c1cccs1 | 160 | 82200 | 16900 | – | –
3 | CN(C)CCN1CCCCc2cc(NC(=N)c3cccs3)ccc21.Cl.Cl | – | – | 1500 | > 100000 | Not Active
4 | N=C(Nc1ccc2c(c1)CCCCN2CCN1CCCCC1)c1cccs1 | 1960 | – | – | – | –
5 | CNCCN1CCCCc2cc(NC(=N)c3cccs3)ccc21 | 100 | – | > 100000 | – | –
6 | N=C(Nc1ccc2c(c1)CCCCN2C1CCNC1)c1cccs1 (racemic) | – | – | 13500 | – | –
7 | CN1CCC(N2CCCCc3cc(NC(=N)c4cccs4)ccc32)C1 (racemic) | – | – | > 100000 | – | –
8 | CN1CCCC1CCN1CCCCc2cc(NC(=N)c3cccs3)ccc21 (racemic) | 1860 | – | > 100000 | – | –
